Drawing on patent publication US10335409B2 (priority 2012, dated 2019), this text covers EC50 and Ki for three molecules.

A word on the EC50: it is the concentration giving half of the maximal effect. The term Ki denotes the equilibrium dissociation constant of an inhibitor or competing ligand from its target.

Assay [1] concerns genotype 3a (S52) stable HCV replicon in Huh-7-derived cells. In words: Stable subgenomic HCV replicon EC50, genotype 3a (Renilla luciferase). As to conditions: Hepatitis C virus, 72 h, read-out: EC50 3A RLUC. The class given is cell-based, hepatitis C virus. In general terms: A replicon is a self-replicating genome or part of one, used to study replication in cells.
Assay [2] relates to genotype 1a (H77) wild type transient HCV replicon in Huh-7-derived cells. In words: Transient-transfected HCV replicon EC50, genotype 1a wild type. As to conditions: Hepatitis C virus, 72 h, transient-transfected replicon genotype 1a wild type, read-out: EC50 1A WT. It is filed as cell-based, hepatitis C virus.
The subject of assay [3] is genotype 4a (ED43) stable HCV replicon in Huh-7-derived cells. Description: Stable subgenomic HCV replicon EC50, genotype 4a (Renilla luciferase). As to conditions: Hepatitis C virus, 72 h, read-out: EC50 4A RLUC. The class given is cell-based, hepatitis C virus. Put shortly: (§1)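 Compounds, three-fold diluted, were applied to Huh-7-derived cells harbouring luciferase replicons (genotype 1a H77, 1b Con1, 2a JFH-1, 4a ED43, with strain-specific adaptive mutations). Seventy-two hours later, intracellular replication was gauged by Renilla luciferase activity and EC50 derived by regression.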

The test system of assay [4] is genotype 1b (Con1) stable HCV replicon in Huh-7-derived cells. Description: Stable subgenomic HCV replicon EC50, genotype 1b (Renilla luciferase). The class given is cell-based, hepatitis C virus. As to conditions: Hepatitis C virus, stable replicon genotype 1b, 72 h, read-out: EC50 1B RLUC. Summed up:
as §1

Assay [5] concerns genotype 1a (H77) stable HCV replicon in Huh-7-derived cells. Description: Stable subgenomic HCV replicon EC50, genotype 1a (Renilla luciferase). It is filed as cell-based, hepatitis C virus. As to conditions: Hepatitis C virus, stable replicon genotype 1a, 72 h, read-out: EC50 1A RLUC. Put shortly: as §1
Assay [6] has as its system genotype 2a (JFH-1) stable HCV replicon in Huh-7-derived cells. Description: Stable subgenomic HCV replicon EC50, genotype 2a (Renilla luciferase). It is filed as cell-based, hepatitis C virus. As to conditions: Hepatitis C virus, stable replicon genotype 2a, 72 h, read-out: EC50 2A RLUC. Put shortly: as §1
Assay [7] deals with genotype 1b (Con1) wild type transient HCV replicon in Huh-7-derived cells. In words: Transient-transfected HCV replicon EC50, genotype 1b wild type. The class given is cell-based, hepatitis C virus. As to conditions: Hepatitis C virus, 72 h, transient-transfected replicon genotype 1b wild type, read-out: EC50 1B WT.
The target in assay [8] is HCV NS3 protease domain genotype 3a (Hepatitis C virus genotype 3a, UniProt Q81258). In words: Ki determination, NS3 protease genotype 3a (fluorogenic depsipeptide substrate). As to conditions: 200 pM enzyme, NS4A peptide. It is filed as biochemical. The source says: Purified NS3 protease domain (amino acids 1-181) of the genotype 1b and 3a virus were generated as above. The internally quenched fluorogenic depsipeptide substrate Ac-DED(Edans)-EEAbuΨ[COO]ASK(Dabcyl)-NH2 and a synthetic peptide containing the hydrophobic core residues of the NS4A protein cofactor ([…]; NS4A peptide) were obtained from Anaspec, Inc. (San Jose, Calif.). Other chemicals and biochemicals were of reagent grade or better and were purchased from standard suppliers.
Chain of HCV NS3 protease domain genotype 3a (Q81258 whole entry, looked up, the tested form may be a part): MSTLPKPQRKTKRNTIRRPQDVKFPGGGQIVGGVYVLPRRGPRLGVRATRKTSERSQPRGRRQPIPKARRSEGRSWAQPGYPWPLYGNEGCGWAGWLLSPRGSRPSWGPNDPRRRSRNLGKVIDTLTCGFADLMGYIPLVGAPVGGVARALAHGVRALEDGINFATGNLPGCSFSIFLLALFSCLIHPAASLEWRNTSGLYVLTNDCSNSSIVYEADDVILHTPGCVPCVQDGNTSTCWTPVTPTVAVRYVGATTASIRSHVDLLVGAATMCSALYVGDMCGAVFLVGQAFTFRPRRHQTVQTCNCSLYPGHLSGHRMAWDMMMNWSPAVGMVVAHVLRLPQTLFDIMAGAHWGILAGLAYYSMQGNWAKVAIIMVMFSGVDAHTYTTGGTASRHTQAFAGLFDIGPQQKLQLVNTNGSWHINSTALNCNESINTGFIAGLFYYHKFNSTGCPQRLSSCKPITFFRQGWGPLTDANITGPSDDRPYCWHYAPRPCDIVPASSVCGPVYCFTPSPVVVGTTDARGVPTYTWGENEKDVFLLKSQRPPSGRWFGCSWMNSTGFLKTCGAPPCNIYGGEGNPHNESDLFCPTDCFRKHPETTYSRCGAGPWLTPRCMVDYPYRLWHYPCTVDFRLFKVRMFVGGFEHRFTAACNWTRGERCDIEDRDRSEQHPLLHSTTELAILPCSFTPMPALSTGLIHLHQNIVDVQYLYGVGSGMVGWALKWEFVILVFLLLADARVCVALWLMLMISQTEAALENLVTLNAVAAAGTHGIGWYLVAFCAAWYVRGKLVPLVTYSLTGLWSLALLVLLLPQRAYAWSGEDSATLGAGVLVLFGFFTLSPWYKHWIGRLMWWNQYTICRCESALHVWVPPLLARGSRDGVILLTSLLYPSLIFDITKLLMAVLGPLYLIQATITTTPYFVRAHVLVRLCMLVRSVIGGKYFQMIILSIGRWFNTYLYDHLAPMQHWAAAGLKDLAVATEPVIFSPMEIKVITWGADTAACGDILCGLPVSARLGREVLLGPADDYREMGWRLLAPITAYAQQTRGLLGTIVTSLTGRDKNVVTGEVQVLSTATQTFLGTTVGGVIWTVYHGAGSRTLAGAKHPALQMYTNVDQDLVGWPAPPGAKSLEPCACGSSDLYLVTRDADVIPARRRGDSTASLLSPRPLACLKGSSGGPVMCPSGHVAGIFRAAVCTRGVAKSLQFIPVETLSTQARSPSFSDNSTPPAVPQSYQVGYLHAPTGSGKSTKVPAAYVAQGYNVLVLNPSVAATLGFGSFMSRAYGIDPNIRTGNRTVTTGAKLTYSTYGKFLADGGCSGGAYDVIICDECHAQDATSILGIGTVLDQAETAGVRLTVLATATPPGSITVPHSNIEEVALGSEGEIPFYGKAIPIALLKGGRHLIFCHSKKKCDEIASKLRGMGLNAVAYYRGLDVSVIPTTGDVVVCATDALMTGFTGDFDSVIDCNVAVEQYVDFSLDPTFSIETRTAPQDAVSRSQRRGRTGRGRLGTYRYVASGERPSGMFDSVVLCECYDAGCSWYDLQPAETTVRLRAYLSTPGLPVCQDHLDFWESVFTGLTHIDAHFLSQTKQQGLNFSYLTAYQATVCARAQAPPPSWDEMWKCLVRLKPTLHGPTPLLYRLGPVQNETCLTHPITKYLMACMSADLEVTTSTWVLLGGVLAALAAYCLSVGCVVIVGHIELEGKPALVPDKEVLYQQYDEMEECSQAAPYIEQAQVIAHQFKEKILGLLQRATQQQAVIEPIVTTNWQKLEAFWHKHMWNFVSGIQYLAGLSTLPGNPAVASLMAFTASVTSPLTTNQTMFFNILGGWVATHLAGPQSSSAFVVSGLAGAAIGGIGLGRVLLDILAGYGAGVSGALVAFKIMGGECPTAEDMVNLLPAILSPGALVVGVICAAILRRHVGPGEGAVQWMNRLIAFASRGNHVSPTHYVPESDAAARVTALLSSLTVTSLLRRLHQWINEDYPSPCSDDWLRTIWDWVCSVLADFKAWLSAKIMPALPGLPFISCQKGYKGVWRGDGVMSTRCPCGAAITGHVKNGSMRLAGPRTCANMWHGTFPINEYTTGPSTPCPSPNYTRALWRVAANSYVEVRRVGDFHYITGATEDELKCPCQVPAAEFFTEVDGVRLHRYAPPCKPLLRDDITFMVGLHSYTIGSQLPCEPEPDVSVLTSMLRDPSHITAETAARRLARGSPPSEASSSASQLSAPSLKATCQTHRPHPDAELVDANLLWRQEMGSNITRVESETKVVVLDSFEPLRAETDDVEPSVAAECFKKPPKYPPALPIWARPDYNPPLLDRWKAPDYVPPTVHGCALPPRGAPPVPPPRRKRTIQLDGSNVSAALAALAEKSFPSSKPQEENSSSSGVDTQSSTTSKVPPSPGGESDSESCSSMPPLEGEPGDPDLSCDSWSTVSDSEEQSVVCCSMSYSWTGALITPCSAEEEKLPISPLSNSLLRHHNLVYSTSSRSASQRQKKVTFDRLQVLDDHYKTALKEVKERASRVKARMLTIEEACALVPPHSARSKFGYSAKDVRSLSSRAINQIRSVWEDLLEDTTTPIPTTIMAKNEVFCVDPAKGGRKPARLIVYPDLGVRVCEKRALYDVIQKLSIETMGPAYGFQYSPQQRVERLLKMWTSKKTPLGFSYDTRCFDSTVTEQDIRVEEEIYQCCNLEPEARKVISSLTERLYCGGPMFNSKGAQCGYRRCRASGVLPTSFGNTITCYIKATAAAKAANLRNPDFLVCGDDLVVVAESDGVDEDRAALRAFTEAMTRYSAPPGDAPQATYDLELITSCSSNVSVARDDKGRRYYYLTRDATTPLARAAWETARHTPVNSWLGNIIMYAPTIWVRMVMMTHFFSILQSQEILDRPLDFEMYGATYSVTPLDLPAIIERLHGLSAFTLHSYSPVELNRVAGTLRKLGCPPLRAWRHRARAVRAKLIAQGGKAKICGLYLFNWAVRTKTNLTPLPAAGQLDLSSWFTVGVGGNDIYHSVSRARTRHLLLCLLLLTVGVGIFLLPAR
Reactions were run at room temperature in buffer consisting of 50 mM HEPES, 40% glycerol, 0.05% Triton X-100, 10 mM DTT, and 10% DMSO. The final assay solutions contained 50 pM NS3 genotype 1 b protease or 200 pM genotype 3a protease, 20 μM NS4A peptide, and 4 μM substrate (genotype 1b) or 2 μM substrate (genotype 3a). Inhibitor concentrations varied from 100 nM to 5 pM in 3-fold dilutions, and no-inhibitor controls were included.
Compound dilutions were made in DMSO at 20× final concentration. Reaction mixtures were prepared in 96-well assay plates. A solution of enzyme and NS4A peptide in assay buffer (25 μL volume with both reagents at 4× final concentration) was mixed with 45 μL assay buffer and 5 μL of either inhibitor or DMSO, and pre-incubated at room temperature for 1 hour. The reaction was started by addition of 25 μL substrate solution at 4× final concentration. Plates were mixed vigorously for 5-10 seconds and reactions were allowed to proceed for 90 minutes, fluorescence was measured every 30 s between 90 and 120 minutes reaction time using a Tecan InfiniTe M1000 or PerkinElmer Envision multimode plate reader with an excitation wavelength of 340 nm and an emission wavelength of 490 nm.
Rates were calculated from the progress curves at steady state, in the time frame of 90-120 minutes after addition of substrate. To determine the Ki, rates were plotted as a function of inhibitor concentration, and the data were fit with equation 1 (Morrison, J. F., Biochimica et Biophysica Acta 1969, 185, 269-286) to calculate Ki^app using GraphPad Prism 5. Active fraction of enzyme was determined by active site titration with known potent inhibitors. Ki was calculated from Ki^app/(1+[[S]/Km]).

Assay [9] deals with genotype 1b NS3/4a protease inhibitor resistant variant D168A transient HCV replicon in Huh-7-derived cells. In words: Transient-transfected HCV replicon EC50, genotype 1b D168A. The class given is cell-based, hepatitis C virus. As to conditions: Hepatitis C virus, 72 h, read-out: EC50 1B D168A, transient-transfected replicon genotype 1b D168A resistant variant, 72 h.
The test system of assay [10] is genotype 1a NS3/4a protease inhibitor resistant variant R155K transient HCV replicon in Huh-7-derived cells. In words: Transient-transfected HCV replicon EC50, genotype 1a R155K. It is filed as cell-based, hepatitis C virus. As to conditions: Hepatitis C virus, 72 h, read-out: EC50 1A R155K, transient-transfected replicon genotype 1a R155K resistant variant, 72 h.

For the molecule `COc1ccc2nc3c(nc2c1)O[C@H]1CN(C(=O)[C@H](C(C)(C)C)NC(=O)O[C@@H]2CCC[C@H]2CCCCC3)[C@H](C(=O)N[C@]2(C(=O)NS(=O)(=O)C3(C)CC3)C[C@H]2C(F)F)[C@@H]1C` [Example 27, (3aR,7S10S,1S,12R,24aR)-7-tert-butyl-N-[(1R,2R)-2-(difluoromethyl)-1-{[(1-methylcyclopropyl)sulfonyl]carbamoyl}cyclopropyl]-16-methoxy-11-methyl-5,8-dioxo-1,2,3,3a,5,6,7,8,11,12,20,21,22,23,24,24a-hexadecahydro-10H-9,12-methanocyclopenta[18,19][1,10,3,6]dioxadiazacyclononadecino[11,12-b]quinoxaline-10-carboxamide], the EC50 in [1] was found to be 266 nM; in assay [2], 6 nM; in assay [3], 6.1 nM; in assay [4], 5.2 nM; in assay [5] it was 6.6 nM; in assay [6], 6.7 nM. The figures for the EC50 in assay [7], in [9] and in assay [10] were 4.3 nM, 70 nM and 20 nM, respectively. This molecule also yielded a Ki in assay [8] of 0.08 nM.

Regarding `CC[C@@]12C[C@H]1CCCCCc1nc3ccc(OC)cc3nc1O[C@H]1CN(C(=O)[C@H](C(C)(C)C)NC(=O)O2)[C@H](C(=O)N[C@]2(C(=O)NS(=O)(=O)C3(C)CC3)C[C@H]2C(F)F)[C@@H]1C` [Example 43, (1aR,5S,8S,9S,10R,22aR)-5-tert-butyl-N-[(1R,2R)-2-(difluoromethyl)-1-{[(1-methylcyclopropyl)sulfonyl]carbamoyl}cyclopropyl]-1a-ethyl-14-methoxy-9-methyl-3,6-dioxo-1,1a,3,4,5,6,9,10,18,19,20,21,22,22a-tetradecahydro-8H-7,10-methanocyclopropa[18,19][1,10,3,6]dioxadiazacyclononadecino[11,12-b]quinoxaline-8-carboxamide], the EC50 in assay [1] was found to be 92 nM; in assay [2], 3.8 nM; in assay [3], 3.6 nM; in [4], 3.8 nM; in assay [5], 4.9 nM; in [6], 5.2 nM. Moreover, the concentration for a half-maximal effect (EC50) in [7] was 2.4 nM; in [9], 41 nM; in [10], 8.7 nM. Besides, the Ki in assay [8] is 0.16 nM.

Regarding `CC[C@@H]1[C@@H]2CN(C(=O)[C@H](C3CCCCC3)NC(=O)O[C@@H]3C[C@H]3CCCCCc3nc4ccc(OC)cc4nc3O2)[C@@H]1C(=O)N[C@]1(C(=O)NS(=O)(=O)C2(C)CC2)C[C@H]1C(F)F` [Example 16, (1aR,5S,8S,9S,10R,22aR)-5-cyclohexyl-N-[(1R,2R)-2-(difluoromethyl)-1-{[(1-methylcyclopropyl)sulfonyl]carbamoyl}cyclopropyl]-9-ethyl-14-methoxy-3,6-dioxo-1,1a,3,4,5,6,9,10,18,19,20,21,22,22a-tetradecahydro-8H-7,10-methanocyclopropa[18,19][1,10,3,6]dioxadiazacyclononadecino[11,12-b]quinoxaline-8-carboxamide], the EC50 in assay [1] turned out to be 201 nM; in assay [3], 8.1 nM; in [4], 7.4 nM; in assay [5], 12 nM; in assay [6], 6.2 nM. This molecule registered a Ki in assay [8] of 0.21 nM.
